Entries after “also recorded” stand apart in the source; their conditions may differ. Where no end group is shown, it is not given here.
Columns and labels:
HaCaT cells = test: Proliferation of HaCaT cells (CCK8); type: cell-based, human; details: 0.2-0.8 μg/mL; 24 h, 48 h and 72 h; 1% serum
Procedure: Experimental method: Immortalized human keratinocytes (HaCaT cells) was adjusted to a concentration of 1.0×10^5 to 5.0×10^5/mL for passaging, and they were cultured at 37° C. and 5% CO2 for 24-36 h for biological activity detection. The cells were digested with 0.25% trypsin for 5 min, 1640 whole blood culture medium, the volume of which was not less than 1 time of the volume of the trypsin, was added to stop digestion, a cell suspension was collected, centrifuged at 1000 RPM for 3 min, the supernatant was discarded, 2 mL of 1640 whole blood culture medium was added to suspend the cells, 20 μL of the cell suspension was taken and stained with AOPI, the concentration of cells in the suspension was then detected by a cell counter, the suspension was prepared to a concentration of 5×10^4/mL with 1640 culture medium containing serum at a concentration of 10% and inoculated into a 96-well cell culture plate, with 100 μL per well, i.e., 5000 cells/well, and the plate was cultured at 37° C. and 5% CO2 overnight.
After 24 h, the original culture medium was discarded, and 100 μL of polypeptide compound solutions with different concentrations prepared with 1640 culture medium containing serum at a concentration of 1% were added, such that the final concentrations of the polypeptide compounds to be tested were 0.2, 0.4 and 0.8 ug/mL, respectively. In addition, an EGF control group was prepared by adding 100 μL of a recombinant human epidermal growth factor (EGF) solution prepared with 1640 culture medium containing serum at a concentration of 1%, with the final concentration being 100 ng/ml. In the model control group, an equal volume of 1640 culture medium containing serum at a concentration of 1% was added. After culturing at 37° C. and 5% CO2 for 24 h, 48 h and 72 h, the proliferation of the HaCaT cell line was detected by means of CCK8 kit.

[1] = tested on: ethanol-induced gastric ulcer model in mice; test: Anti-ulcer effect on ethanol-induced gastric ulcer model in mice; type: in vivo; details: single administration; ulcer inhibition rate of test compound / ulcer inhibition rate of Compound 1
Procedure: Experimental animals: Six-week old C57BL/6JGPt male mice, weighing about 20 g/mouse, were selected, with 10 mice in each group, from GemPharmatech (Chengdu) Co., Ltd., animal license number: SCXK (Chuan) 2020-034. After the experimental animals were divided into groups, they were dosed according to Table 5 one day before the experiment. Among the groups, the model group was given 200 μl of pure water, and the other dose groups were given 200 μl of drug solution. After that, all the animals were fasted for 24 h with free access to water. The next day, 1 h after administration, the mice in each group were given 9 μl/g of absolute ethanol by oral gavage for modeling. After 1 h, the animals were sacrificed by cervical dislocation, the gastric cardia was ligated, the pylorus was occluded, and the whole stomach was removed. 1 mL of 1% formaldehyde solution was injected into the gastric lumen via the glandular stomach, the cardia was ligated, and the stomach was taken out and immediately immersed in 1% formaldehyde solution. After soaking for 30 min, the stomach tissue was taken out and cut open along the greater curvature. The content of the stomach was rinsed off with normal saline, the injury of the gastric mucosa in the mice were observed and measured after being laid flat, and the ulcer index and ulcer inhibition rate were calculated; panoramic photos of the stomach were taken; and finally, the gastric tissue sample was immersed in formalin and fixed. Calculation method for ulcer index: If the length of cord-like injury was greater than 1 mm, the length thereof was measured, with 1 point per millimeter; if the width thereof was greater than 1 mm, the score thereof was doubled according to the number of millimeters of the width; and if the length was less than 1 mm, a score of 0.5 was given, and the scores were added up to obtain the ulcer index of the animal. Method of data statistics: the ulcer index was expressed as mean±standard deviation; the ulcer inhibition rate was calculated by using the median value and mean value of the ulcer index in each dosage group and simulation group; and the data were statistically analyzed by means of Excel, and the difference data of the gastric ulcer index were statistically analyzed by means of independent sample T test.

RSC96 cells = test: Proliferation of RSC96 cells (CCK-8); type: cell-based; details: 0.2, 0.4 and 0.8 ug/ml; 48 h; 0% serum
Procedure: Glial cells (RSC96 cells) were adjusted to a concentration of 1.0×10^5 to 5.0×10^5/mL for passaging and cultured at 37° C. and 5% CO2 for 24-36 h for biological activity detection. The cells were digested by trypsin, collected, prepared to a concentration of 5×10^4/mL with a serum-free medium, inoculated into a 96-well cell culture plate, with 100 μL per well, i.e., 5000 cells/well, and cultured overnight at 37° C. and 5% CO2. The polypeptide compound of the present invention was prepared to test concentrations (0.2 ug/ml, 0.4 ug/ml, and 0.8 ug/ml) with 0% serum culture medium as experimental groups, and an equal amount of 0% serum drug-free culture medium was added to the control group. They were added to 4 duplicate wells, and the resultants were incubated at 37° C. and 5% CO2 for 48 h. Detection of the proliferation of cells using CCK-8: the old culture medium was removed, and a serum-free medium containing 10% CCK-8 was added to each well. After incubation in an incubator for 2 h, the absorbance at 450 nm was measured by a microplate reader.

FGFR1 = FGFR1 (Homo sapiens, UniProt P11362); test: FGFR receptor binding assay: ultrafiltration/mass spectrometry affinity screening to FGFR1 protein target; details: ratio of lower-layer to upper-layer compound MS signal intensity; the greater the ratio, the stronger the affinity
Sequence of FGFR1 (P11362 22-822, species assumed): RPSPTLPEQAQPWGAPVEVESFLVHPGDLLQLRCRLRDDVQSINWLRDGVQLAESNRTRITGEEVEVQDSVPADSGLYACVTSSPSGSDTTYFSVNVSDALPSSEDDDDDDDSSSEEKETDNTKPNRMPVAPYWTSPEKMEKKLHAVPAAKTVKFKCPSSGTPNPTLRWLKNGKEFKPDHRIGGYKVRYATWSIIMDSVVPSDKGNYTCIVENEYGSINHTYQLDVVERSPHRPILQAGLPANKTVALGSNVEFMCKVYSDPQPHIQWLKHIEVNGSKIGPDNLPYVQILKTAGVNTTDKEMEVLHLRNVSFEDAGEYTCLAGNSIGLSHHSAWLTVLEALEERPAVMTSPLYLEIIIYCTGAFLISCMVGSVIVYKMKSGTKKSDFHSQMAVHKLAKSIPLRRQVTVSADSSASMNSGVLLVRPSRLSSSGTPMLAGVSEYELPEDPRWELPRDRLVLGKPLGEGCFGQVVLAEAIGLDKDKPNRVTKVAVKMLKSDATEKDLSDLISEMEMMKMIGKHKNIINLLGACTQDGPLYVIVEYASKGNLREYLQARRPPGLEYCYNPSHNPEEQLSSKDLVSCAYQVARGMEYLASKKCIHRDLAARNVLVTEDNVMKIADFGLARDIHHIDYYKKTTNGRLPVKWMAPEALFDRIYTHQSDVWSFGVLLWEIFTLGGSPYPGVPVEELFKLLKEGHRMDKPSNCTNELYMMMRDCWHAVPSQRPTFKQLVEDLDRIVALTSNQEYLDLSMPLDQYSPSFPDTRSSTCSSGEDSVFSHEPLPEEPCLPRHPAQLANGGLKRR
Procedure: The affinity of the polypeptide compound prepared by the present invention to FGFR1 was tested by using a control FGFR1 allosteric inhibitor (product number SSR128129E from Sigma) as a positive compound control.
Screening for the affinity to FGFR1 was as follows: FGFR1 solutions with an appropriate concentration were taken, the positive compound SSR128129E (Sigma) at an appropriate concentration and sample solutions of the inventive polypeptide compounds, as freeze-dried powders, dissolved in protein buffers were then respectively added. After incubation at room temperature for 50 min, ultrafiltration and screening were carried out to obtain various treated solutions. An appropriate volume of acetonitrile was added to each treated solution to precipitate a protein, the solution was then centrifuged, and the supernatant was taken and analyzed by mass spectrometry.
Affinity screening conditions: One-dimensional liquid-phase conditions were: chromatographic column; PolyLC chromatographic column, mobile phase A: KH2PO4, NaCl, pH 7.5, mobile phase B: acetonitrile, column temperature: 8° C., flow rate: 1 mL/min, and injection volume: appropriate; and two-dimensional liquid-phase conditions were: chromatographic column: BONUS RRHD, mobile phase A: 0.1% formic acid aqueous solution, mobile phase B: 0.1% formic acid in acetonitrile, column temperature: 60° C., flow rate: 0.3 mL/min, and injection volume: 40 uL. Gradient elution was used, i.e., 98% A (0-1 min), 98-10% A (1-6 min), 10% A (6-7.5 min), 10-98% A (7.5-8 min), and 98% A (8-9.5 min). Mass spectrometry conditions: Agilent 6530 Q-Tof, ESI ion source, voltage 3.5 KV, mass-to-charge ratio scanning range m/z=200-3000, acquisition mode: positive ion scanning, ion source temperature: 350° C., solvent removal temperature: 300° C., and nitrogen flow rate: 8 L/min.

HMEC-1 cells = test: Proliferation of HMEC-1 cells (CCK-8); type: cell-based, Human; details: 0.05, 0.2 and 0.8 ug/mL; 48 h; 0% serum
Procedure: Human microvascular endothelial cells (HMEC-1 cells) were cultured in 10% serum culture medium at 37° C. and 5% CO2, the medium was replaced every 1-2 d, and the cell concentration was controlled to be 4×10^6 cells/mL for passage. Cells were collected, prepared to […] with complete culture medium, inoculated into a 96-well cell culture plate, with 100 μL per well, i.e., 5000 cells/well, and cultured at 37° C. and 5% CO2 until the cells adhered to the wall. The polypeptide compound of the present invention was prepared to test concentrations (0.05 ug/mL, 0.2 ug/mL, and 0.8 ug/mL) with 0% serum culture medium as experimental groups, a positive drug (300 ng/ml) was prepared in the same way and added as a positive control, and an equal amount of 0% serum drug-free culture medium was added to the control group. They were added to 5 duplicate wells, and the resultants were incubated at 37° C. and 5% CO2 for 48 h. Detection of the proliferation of cells using CCK-8: the old culture medium was removed, and a serum-free medium containing 10% CCK-8 was added to each well. After incubation in an incubator for 2 h, the absorbance at 450 nm was measured by a microplate reader.

Sequence	effect on proliferation of HaCaT cells (HaCaT cells)	Anti-ulcer activity (mean relative ulcer inhibition rate) [1]	effect on proliferation of RSC96 cells (RSC96 cells)	Cb/Ct range (FGFR1)	effect on proliferation of HMEC-1 cells (HMEC-1 cells)
AARLADELRAE [Compound 65]	proliferation-promoting effect	1.29	proliferation-promoting effect	1.0-3	
EINQLELIKQASI [Compound 64]	proliferation-promoting effect	0.61	significant proliferation promoting effects	1.0-3	proliferation-promoting effect
ETLQRKNKE [Compound 66]	proliferation-promoting effect	0.52	significant proliferation promoting effects	1.0-3	
HCLAGLKKDLEDLE [Compound 63]	proliferation-promoting effects	1.99	proliferation-promoting effect	1.0-3	
KFYSQSTASSSYAYPSHFGPAGFSGSHS [Compound 70]	proliferation-promoting effect	0.39	inhibitory effect	1.0-3	
VDAAMVLLTR [Compound 72]	proliferation-promoting effect	1.65		1.0-3	significant proliferation promoting effects; also recorded: proliferation-promoting effect
VDAAVIEKIE [Compound 71]	proliferation-promoting effect	0.77		1.0-3	proliferation-promoting effect
VDAAVLMLRT [Compound 73]	proliferation-promoting effect	1.46	proliferation-promoting effect	1.0-3	proliferation-promoting effect

— patent US20250263437A1, “POLYPEPTIDE FOR REPAIRING SKIN WOUND OR MUCOSAL INJURY, AND APPLICATION THEREOF” (Sichuan Gooddoctor Panxi Pharmaceutical Co., Ltd., priority 2021, published 2025)
